Patent US20240174622A1, “COMPOUND AND RADIOACTIVE LABELING COMPOUND” (NIHON MEDI-PHYSICS CO., LTD., priority 2021, published 2024)

Legend:
[1] = test system: LNCaP tumor-transplanted mouse; assay: Internal radioactivity distribution using LNCaP tumor-transplanted mouse; format: in vivo
Summary of the method: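 Biodistribution is given as percent injected dose per gram of tissue, measured in blood and organs harvested at time points from 1 h to 192 h. Radiotracers were given by tail-vein injection in saline at 185–259 kBq, n=2–3. Hosts were male CB17 SCID mice carrying LNCaP or PC-3 tumours implanted s.c. in Matrigel 40–60 days earlier.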

[2] = test system: PC-3 tumor-transplanted mouse; assay: Internal radioactivity distribution using PC-3 tumor-transplanted mouse; format: in vivo
Experimental: (§1) The animal test was performed in compliance with the guidelines of Kyoto University Animal Experiment Committee. Male CB17/IcrJcl-Prkdc^scid mice were purchased from CLEA Japan, Inc. The animals were kept under 12 h/12 h, day/night cycle conditions and fed ad libitum with food and water. LNCaP cells (1.0×10^7 cells/mouse) or PC-3 cells (1.0×10^7 cells/mouse) were suspended in a mixture of PBS and Matrigel manufactured by Corning Life Sciences (1:1, 150 μL) and the suspension was subcutaneously transplanted to the right shoulder of mice under isoflurane anesthesia. Thereafter, the mice were kept for 40 to 60 days.
LNCaP or PC-3 tumor-implanted mice were administered saline solutions (185 kBq, 100 μL) of [^111In]In-PSMA-DA1 or [^111In]In-PSMA-DB from the tail vein (n=3 each). Mice were euthanized 1, 4, 24, 48, 96, and 192 hours after administration. Thereafter, blood and each organ were recovered, and the mass and radioactivity of the organs were measured.
The percentage (% ID) of the radioactivity amount to the administered radioactivity amount (injected dose) is shown as the value (% ID/g) divided by the blood mass or the organ mass (g).
as §1, with “LNCaP cells (4.3×10^6 cells/mouse) or” for “LNCaP cells (1.0×10^7 cells/mouse) or”, “PC-3 cells (3.3×10^6 cells/mouse) were” for “PC-3 cells (1.0×10^7 cells/mouse) were”, “shoulder of CB17/IcrJcl-Prkdc^scid mice under” for “shoulder of mice under”
Mice were euthanized 1, 4, 24, 48, 96, and 192 hours after administration. Thereafter, blood and each organ were recovered, and the mass and radioactivity of the organs were measured.
The results are shown in Table 13 (Mean value±standard deviation, n=3).

[3] = biological target: human serum albumin (HSA) (Homo sapiens, UniProt P02768); assay: Evaluation of binding to albumin (HSA solution, PBS control); details: left to stand in PBS
Chain of human serum albumin (HSA) (P02768 25-609): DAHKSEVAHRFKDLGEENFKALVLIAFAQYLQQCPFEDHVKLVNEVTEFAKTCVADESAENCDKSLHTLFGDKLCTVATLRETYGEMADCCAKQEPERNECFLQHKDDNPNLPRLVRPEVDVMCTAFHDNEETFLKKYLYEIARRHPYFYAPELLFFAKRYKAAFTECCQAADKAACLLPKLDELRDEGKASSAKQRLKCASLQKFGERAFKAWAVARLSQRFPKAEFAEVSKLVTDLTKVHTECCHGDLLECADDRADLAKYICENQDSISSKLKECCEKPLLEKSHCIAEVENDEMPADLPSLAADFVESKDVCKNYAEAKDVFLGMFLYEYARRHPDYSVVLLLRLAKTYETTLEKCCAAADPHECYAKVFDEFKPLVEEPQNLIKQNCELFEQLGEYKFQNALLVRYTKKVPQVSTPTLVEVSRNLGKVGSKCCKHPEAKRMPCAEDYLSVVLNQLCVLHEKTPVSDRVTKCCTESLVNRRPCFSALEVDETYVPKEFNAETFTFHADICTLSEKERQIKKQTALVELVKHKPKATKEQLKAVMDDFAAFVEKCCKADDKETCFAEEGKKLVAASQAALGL
Summary of the method: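 Albumin binding read as the split of radioactivity between eluate and retained column fraction after gamma counting. Samples in human albumin or PBS control were centrifuged 2 min at 1500×g, 4° C., through Sephadex G-100 or G-50 spin columns.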

[4] = 1 h after administration, PC-3 tumor-transplanted mice

SMILES: O=C([O-])CN1CCN(C(CCC(=O)NCCCC[C@H](NC(=O)N[C@@H](CCC(=O)O)C(=O)O)C(=O)O)C(=O)[O-])CCN(CC(=O)[O-])CCN(C(CCC(=O)Nc2ccccc2)C(=O)[O-])CC1.[111In+3] (stereo partly shown) [[^111In]In-PSMA-DB, reference compound]
- Blood ([1]; 1 h after administration): 3.33 ± 0.21 % ID/g
- Brain ([1]; 1 h after administration): 0.06 ± 0.01 % ID/g
- Heart ([1]; 1 h after administration): 0.87 ± 0.33 % ID/g
- Intestine ([1]; 1 h after administration): 0.59 ± 0.14 % ID/g
- Kidney ([1]; 1 h after administration): 59.2 ± 35.2 % ID/g
- LNCaP Tumor ([1]; 1 h after administration): 3.36 ± 0.04 % ID/g
- Liver ([1]; 1 h after administration): 0.91 ± 0.20 % ID/g
- Lung ([1]; 1 h after administration): 2.24 ± 0.60 % ID/g
- Muscle ([1]; 1 h after administration): 0.23 ± 0.68 % ID/g
- Pancreas ([1]; 1 h after administration): 0.74 ± 0.25 % ID/g
- Spleen ([1]; 1 h after administration): 3.05 ± 0.53 % ID/g
- Stomach (% ID) ([1]; 1 h after administration): 0.10 ± 0.04 % ID
- Blood ([1]; 4 h after administration): 2.00 ± 0.29 % ID/g
- Brain ([1]; 4 h after administration): 0.05 ± 0.00 % ID/g
- Heart ([1]; 4 h after administration): 0.60 ± 0.08 % ID/g
- Intestine ([1]; 4 h after administration): 1.05 ± 0.10 % ID/g
- Kidney ([1]; 4 h after administration): 22.7 ± 9.69 % ID/g
- LNCaP Tumor ([1]; 4 h after administration): 2.50 ± 0.50 % ID/g
- Liver ([1]; 4 h after administration): 0.95 ± 0.05 % ID/g
- Lung ([1]; 4 h after administration): 1.56 ± 0.07 % ID/g
- Muscle ([1]; 4 h after administration): 0.21 ± 0.04 % ID/g
- Pancreas ([1]; 4 h after administration): 0.54 ± 0.22 % ID/g
- Spleen ([1]; 4 h after administration): 2.39 ± 0.05 % ID/g
- Stomach (% ID) ([1]; 4 h after administration): 0.13 ± 0.03 % ID
- Blood ([1]; 24 h after administration): 0.68 ± 0.17 % ID/g
- Brain ([1]; 24 h after administration): 0.07 ± 0.02 % ID/g
- Heart ([1]; 24 h after administration): 0.43 ± 0.07 % ID/g
- Intestine ([1]; 24 h after administration): 1.00 ± 0.44 % ID/g
- Kidney ([1]; 24 h after administration): 13.2 ± 2.41 % ID/g
- LNCaP Tumor ([1]; 24 h after administration): 2.09 ± 0.39 % ID/g
- Liver ([1]; 24 h after administration): 1.55 ± 0.32 % ID/g
- Lung ([1]; 24 h after administration): 0.97 ± 0.15 % ID/g
- Muscle ([1]; 24 h after administration): 0.21 ± 0.07 % ID/g
- Pancreas ([1]; 24 h after administration): 0.71 ± 0.10 % ID/g
- Spleen ([1]; 24 h after administration): 3.37 ± 0.75 % ID/g
- Stomach (% ID) ([1]; 24 h after administration): 0.16 ± 0.05 % ID
- Blood ([1]; 48 h after administration): 0.27 ± 0.16 % ID/g
- Brain ([1]; 48 h after administration): 0.03 ± 0.02 % ID/g
- Heart ([1]; 48 h after administration): 0.32 ± 0.05 % ID/g
- Intestine ([1]; 48 h after administration): 0.79 ± 0.21 % ID/g
- Kidney ([1]; 48 h after administration): 8.58 ± 2.02 % ID/g
- LNCaP Tumor ([1]; 48 h after administration): 1.69 ± 0.77 % ID/g
- Liver ([1]; 48 h after administration): 1.28 ± 0.16 % ID/g
- Lung ([1]; 48 h after administration): 0.66 ± 0.24 % ID/g
- Muscle ([1]; 48 h after administration): 0.15 ± 0.06 % ID/g
- Pancreas ([1]; 48 h after administration): 0.71 ± 0.17 % ID/g
- Spleen ([1]; 48 h after administration): 2.63 ± 0.83 % ID/g
- Stomach (% ID) ([1]; 48 h after administration): 0.07 ± 0.02 % ID
- Blood ([1]; 96 h after administration): 0.14 ± 0.04 % ID/g
- Brain ([1]; 96 h after administration): 0.09 ± 0.05 % ID/g
- Heart ([1]; 96 h after administration): 0.40 ± 0.12 % ID/g
- Intestine ([1]; 96 h after administration): 0.41 ± 0.17 % ID/g
- Kidney ([1]; 96 h after administration): 7.04 ± 3.28 % ID/g
- LNCaP Tumor ([1]; 96 h after administration): 1.05 ± 0.03 % ID/g
- Liver ([1]; 96 h after administration): 1.59 ± 0.57 % ID/g
- Lung ([1]; 96 h after administration): 0.70 ± 0.15 % ID/g
- Muscle ([1]; 96 h after administration): 0.14 ± 0.08 % ID/g
- Pancreas ([1]; 96 h after administration): 0.85 ± 0.39 % ID/g
- Spleen ([1]; 96 h after administration): 2.82 ± 0.87 % ID/g
- Stomach (% ID) ([1]; 96 h after administration): 0.10 ± 0.03 % ID
- Blood ([1]; 192 h after administration): 0.07 ± 0.03 % ID/g
- Brain ([1]; 192 h after administration): 0.04 ± 0.00 % ID/g
- Heart ([1]; 192 h after administration): 0.33 ± 0.01 % ID/g
- Intestine ([1]; 192 h after administration): 0.13 ± 0.02 % ID/g
- Kidney ([1]; 192 h after administration): 3.47 ± 1.24 % ID/g
- LNCaP Tumor ([1]; 192 h after administration): 0.83 ± 0.11 % ID/g
- Liver ([1]; 192 h after administration): 1.20 ± 0.09 % ID/g
- Lung ([1]; 192 h after administration): 0.67 ± 0.05 % ID/g
- Muscle ([1]; 192 h after administration): 0.14 ± 0.09 % ID/g
- Pancreas ([1]; 192 h after administration): 1.04 ± 0.18 % ID/g
- Spleen ([1]; 192 h after administration): 3.46 ± 0.32 % ID/g
- Stomach (% ID) ([1]; 192 h after administration): 0.05 ± 0.00 % ID
- retention in blood / accumulation at the LNCaP tumor against the comparator (in words) ([1]; any time point): less accumulated
- tumor/kidney ratio compared with [^111In]In-PSMA-DA1 (in words) ([1]; mouse, in vivo): lower
- Blood [2, 4]: 1.92 ± 0.27 % ID/g
- Brain [2, 4]: 0.06 ± 0.00 % ID/g
- Heart [2, 4]: 0.49 ± 0.05 % ID/g
- Intestine [2, 4]: 0.48 ± 0.04 % ID/g
- Kidney [2, 4]: 49.5 ± 12.6 % ID/g
- Liver [2, 4]: 0.62 ± 0.03 % ID/g
- Lung [2, 4]: 1.36 ± 0.23 % ID/g
- Muscle [2, 4]: 0.21 ± 0.08 % ID/g
- PC-3 Tumor [2, 4]: 0.61 ± 0.06 % ID/g
- Pancreas [2, 4]: 0.44 ± 0.06 % ID/g
- Spleen [2, 4]: 2.57 ± 0.39 % ID/g
- Stomach (% ID) [2, 4]: 0.12 ± 0.04 % ID
- accumulation at the PC-3 tumor compared with the LNCaP tumor at the same time point (in words) ([2]; mouse, in vivo): less accumulated
- radioactivity in the eluate (in words) [3]: no significant radioactivity
